Patent EP2787003A1, “Antimicrobial peptide produced by marine sponge-derived Bacillus subtilis” (priority 2013, dated 2014)

What was measured:
C. perfringens = assay type: cell-based, Clostridium perfringens NCDO 1799; set-up: key: +, clear halo of growth inhibition; ++: multiple +, increased activity as assessed visually by the increased diameter of the inhibition zone; +++: multiple +, increased activity as assessed visually by the increased diameter of the inhibition zone; ++++: multiple +, increased activity as assessed visually by the increased diameter of the inhibition zone; +++++: multiple +, increased activity as assessed visually by the increased diameter of the inhibition zone; -, no inhibition; conditions: indicator C. perfringens
A. hydrophila = assay: Spot on lawn assay; assay type: cell-based, Aeromonas hydrophila LMG 2844; set-up: key to Antimicrobial activity, spot on lawn assay: +, clear halo of growth inhibition; ++: multiple +, increased activity as assessed visually by the increased diameter of the inhibition zone; +++: multiple +, increased activity as assessed visually by the increased diameter of the inhibition zone; ++++: multiple +, increased activity as assessed visually by the increased diameter of the inhibition zone; +++++: multiple +, increased activity as assessed visually by the increased diameter of the inhibition zone; -, no inhibition
Protocol: (§1) Antimicrobial activity of isolate MMA7 against the indicator strains was initially assessed with a deferred antagonism assay as described by Phelan et al. (2012). Subsequent testing of supernatants, crude extracts and purified compounds was carried out with a well and/or a spot on lawn assays. Essentially, 5 µl of samples were spotted onto 20 ml agar plates seeded with the indicator strain to a final OD600 of 0.015, or 30 µl aliquots were applied to a 5 mm well made on identical plates.

[1] = system: protease mixture from Streptomyces griseus; assay: Susceptibility to proteolytic enzymes, bioactivity by spot on lawn assay; conditions: Streptomyces griseus protease 1 mg ml^-1, 37 °C, 1 h; indicator L. monocytogenes
C. lusitaniae = assay: Spot on lawn assay; assay type: cell-based, Candida lusitaniae; set-up: key: +, clear halo of growth inhibition; ++: multiple +, increased activity as assessed visually by the increased diameter of the inhibition zone; +++: multiple +, increased activity as assessed visually by the increased diameter of the inhibition zone; ++++: multiple +, increased activity as assessed visually by the increased diameter of the inhibition zone; +++++: multiple +, increased activity as assessed visually by the increased diameter of the inhibition zone; -, no inhibition; conditions: indicator C. lusitaniae
Protocol: as §1

L. monocytogenes [2] = assay: Mode of action: growth of the indicator in 96 well plates (optical density, cfu); assay type: cell-based, Listeria monocytogenes EGDe
Protocol: Initially 100 µl aliquots of a two-fold serial dilution of the MB 12h cultures CFS, ASCE and the purified peptide (approx. 150 µg ml^-1), were applied to individual wells on a 96 flat bottom multiple well plate (Sarstedt). An overnight culture of the indicator strain was diluted to an OD595 of 0.05 and 100 µl were applied to each of the wells containing the bioactive peptide. The plate was incubated at 37 °C, with agitation (200 rpm) and the optical density (595 nm) was monitored hourly. Wells where the indicator was added to water only were used as negative controls. Subsequently, 100 µl of indicator overnight cultures diluted to an OD595 of 0.05 were applied to individual wells on a 96 well plate and allowed to grow to an OD595 of 0.5-0.6. 100 µl of a two-fold serial dilutions of the CFS, the respective ASCE and purified peptide, or water, were then applied to the different wells and growth continued to be monitored hourly. At the different time points samples were taken and the number of cfu determined by plating dilutions onto appropriate agar plates.

Alteromonas sp. = assay: Spot on lawn assay; assay type: cell-based; set-up: key to Antimicrobial activity, spot on lawn assay: +, clear halo of growth inhibition; ++: multiple +, increased activity as assessed visually by the increased diameter of the inhibition zone; +++: multiple +, increased activity as assessed visually by the increased diameter of the inhibition zone; ++++: multiple +, increased activity as assessed visually by the increased diameter of the inhibition zone; +++++: multiple +, increased activity as assessed visually by the increased diameter of the inhibition zone; -, no inhibition
Protocol: as §1

L. innocua = assay: Spot on lawn assay; assay type: cell-based, Listeria innocua DPC 3567; set-up: key: +, clear halo of growth inhibition; ++: multiple +, increased activity as assessed visually by the increased diameter of the inhibition zone; +++: multiple +, increased activity as assessed visually by the increased diameter of the inhibition zone; ++++: multiple +, increased activity as assessed visually by the increased diameter of the inhibition zone; +++++: multiple +, increased activity as assessed visually by the increased diameter of the inhibition zone; -, no inhibition; conditions: indicator L. innocua
Protocol: as §1

[3] = system: L. monocytogenes and B. cereus; assay: Storage stability, bioactivity by spot on lawn assay; assay type: physicochemical
From the text: Untreated samples were used as controls.

Candida strains = assay: Spot on lawn assay; assay type: cell-based; conditions: any of the Candida strains
Protocol: as §1
The activity of the purified peptide was tested together with its ASCE preparations, against the strains which were initially used as indicators on the colony overlay assay with the producing strain MMA7 (Table 4). […] No activity was detected against any of the Candida strains.

L. monocytogenes [4] = assay: Activity at different pH values, spot on lawn assay
α-chymotrypsin = α-chymotrypsin (Bos taurus, UniProt P00766); assay: Susceptibility to proteolytic enzymes, bioactivity by spot on lawn assay; conditions: α-chymotrypsin 1 mg ml^-1, 37 °C, 1 h; indicator L. monocytogenes
P. aeruginosa = assay: Spot on lawn assay; assay type: cell-based, Pseudomonas aeruginosa PAO1; set-up: key: +, clear halo of growth inhibition; ++: multiple +, increased activity as assessed visually by the increased diameter of the inhibition zone; +++: multiple +, increased activity as assessed visually by the increased diameter of the inhibition zone; ++++: multiple +, increased activity as assessed visually by the increased diameter of the inhibition zone; +++++: multiple +, increased activity as assessed visually by the increased diameter of the inhibition zone; -, no inhibition; conditions: indicator P. aeruginosa; *activity only detected with 4 to 5 times more peptide than that used for the other indicators
Protocol: as §1

## C=C1NC(=O)[C@@H]2CSC[C@@H](NC(=O)[C@@H]3CS[C@@H](C)[C@H]4NC(=O)[C@H](Cc5ccccc5)NC(=O)[C@H](NC(=O)[C@H](CCCNC(=N)N)NC(=O)[C@@H]5CSC[C@@H](NC(=O)[C@H](CCC(N)=O)NC(=O)[C@@H](NC(=O)[C@@H](NC(=O)/C(=C/C)NC(=O)[C@H](CCCCN)NC(=O)CNC(=O)[C@@H](NC(=O)/C(=C/C)NC(=O)[C@H](C)NC(=O)[C@H](Cc6c[nH]c7ccccc67)NC(=O)C(=O)CC)[C@@H](C)CC)[C@@H](C)CC)C(C)C)C(=O)N[C@@H](C(C)C)C(=O)N[C@@H](CCCCN)C(=O)N[C@@H](CCCCN)C(=O)N5)[C@H](C)SC[C@H](NC4=O)C(=O)NCC(=O)N3)C(=O)N[C@@H](CC(C)C)C(=O)NCC(=O)N[C@H](CSC[C@@H](C(=O)N[C@@H](CC(N)=O)C(=O)O)NC(=O)[C@H](CC(N)=O)NC1=O)C(=O)N2 [Subtilomycin]
C. perfringens
  Antimicrobial activity, spot on lawn assay: -
A. hydrophila; A. hydrophila
  Amount of peptide needed for detectable activity relative to that required to inhibit the Gram-positive indicators: four to five fold more peptide
A. hydrophila; indicator A. hydrophila, *activity only detected with 4 to 5 times more peptide than that used for the other indicators
  Antimicrobial activity, spot on lawn assay: +*
[1]
  Antimicrobial activity after proteolytic treatment: complete loss of activity
C. lusitaniae
  Antimicrobial activity, spot on lawn assay: -
L. monocytogenes [2]; L. monocytogenes
  Nature of the inhibitory activity (mode of action): bacteriolytic action
L. monocytogenes [2]; L. monocytogenes grown in presence of sample from the beginning of growth (T0), samples from 12 h MB cultures
  Effect on growth of the indicator: completely abolish growth
Alteromonas sp.; Alteromonas sp.
  Amount of peptide needed for detectable activity relative to that required to inhibit the Gram-positive indicators: four to five fold more peptide
Alteromonas sp.; indicator Alteromonas sp., *activity only detected with 4 to 5 times more peptide than that used for the other indicators
  Antimicrobial activity, spot on lawn assay: +*
L. innocua
  Antimicrobial activity, spot on lawn assay: ++
[3]; after 5 months storage at -20 °C and -80 °C
  Activity after storage: No activity
[3]; stored at 4 °C and room temperature, after two weeks
  Activity after storage: lost their activity
[3]; stored at -20 °C and -80 °C, spot on lawn against L. monocytogenes and B. cereus
  Period of storage with retained activity: up to 4 months
Candida strains
  Antimicrobial activity: No activity
L. monocytogenes [4]; pH 9, 1 h at room temperature
  Activity at different pH: reduction in activity
L. monocytogenes [4]; pH range 2 to 8, 1 h at room temperature
  Activity at different pH: fully active
L. monocytogenes [4]; pH values higher than 9 (up to 11)
  Activity at different pH: no activity
α-chymotrypsin
  Antimicrobial activity after proteolytic treatment: None of the treatments resulted in a decrease of activity
P. aeruginosa
  Antimicrobial activity, spot on lawn assay: +*
